Values quoted from earlier work as cited in patent publication US5780426A, “Fivemer cyclic peptide inhibitors of diseases involving αv β3” (IXSYS, Incorporated, priority 1995, dated 1998).
Bridge positions count the residues as written; N and C are the ends. Ends that are not written are not given here.

Key:
[1] = system: αv β3 receptor; conditions: chicken embryo tumor model; Brooks et al., Cell 1994
[2] = biological target: integrin αv β3 (Homo sapiens, UniProt P05106+P06756); conditions: Koivunen et al. 1995
integrin αv β3, sequence (P06756 31-889 limits assumed): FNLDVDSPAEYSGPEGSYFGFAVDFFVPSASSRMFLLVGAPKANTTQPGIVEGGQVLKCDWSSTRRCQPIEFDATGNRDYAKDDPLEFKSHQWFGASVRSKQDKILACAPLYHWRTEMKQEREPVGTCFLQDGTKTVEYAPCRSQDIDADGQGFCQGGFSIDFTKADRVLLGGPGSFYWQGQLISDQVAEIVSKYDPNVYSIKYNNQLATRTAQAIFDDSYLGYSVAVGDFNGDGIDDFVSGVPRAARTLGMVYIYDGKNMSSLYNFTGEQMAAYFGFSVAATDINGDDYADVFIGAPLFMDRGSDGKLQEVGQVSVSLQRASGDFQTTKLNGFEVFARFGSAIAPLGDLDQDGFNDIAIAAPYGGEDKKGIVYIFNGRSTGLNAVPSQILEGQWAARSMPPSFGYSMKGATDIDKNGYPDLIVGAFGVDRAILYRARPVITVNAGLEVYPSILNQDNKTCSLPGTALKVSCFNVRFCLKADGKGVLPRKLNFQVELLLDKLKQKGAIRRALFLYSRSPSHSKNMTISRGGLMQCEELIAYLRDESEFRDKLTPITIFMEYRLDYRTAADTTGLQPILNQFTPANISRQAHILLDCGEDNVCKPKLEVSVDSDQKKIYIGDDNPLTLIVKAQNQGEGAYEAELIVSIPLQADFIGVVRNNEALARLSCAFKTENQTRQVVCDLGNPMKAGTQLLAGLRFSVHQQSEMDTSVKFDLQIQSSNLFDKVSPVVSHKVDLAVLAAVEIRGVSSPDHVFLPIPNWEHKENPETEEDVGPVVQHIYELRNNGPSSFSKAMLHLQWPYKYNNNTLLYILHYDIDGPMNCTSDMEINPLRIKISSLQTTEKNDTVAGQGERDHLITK
integrin αv β3, sequence (P06756 891-1048 partner limits assumed): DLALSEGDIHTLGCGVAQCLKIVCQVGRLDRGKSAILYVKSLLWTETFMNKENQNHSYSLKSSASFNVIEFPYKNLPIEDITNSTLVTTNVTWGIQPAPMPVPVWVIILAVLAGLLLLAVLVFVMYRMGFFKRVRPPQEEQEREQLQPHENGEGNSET
integrin αv β3, sequence (P05106 27-788): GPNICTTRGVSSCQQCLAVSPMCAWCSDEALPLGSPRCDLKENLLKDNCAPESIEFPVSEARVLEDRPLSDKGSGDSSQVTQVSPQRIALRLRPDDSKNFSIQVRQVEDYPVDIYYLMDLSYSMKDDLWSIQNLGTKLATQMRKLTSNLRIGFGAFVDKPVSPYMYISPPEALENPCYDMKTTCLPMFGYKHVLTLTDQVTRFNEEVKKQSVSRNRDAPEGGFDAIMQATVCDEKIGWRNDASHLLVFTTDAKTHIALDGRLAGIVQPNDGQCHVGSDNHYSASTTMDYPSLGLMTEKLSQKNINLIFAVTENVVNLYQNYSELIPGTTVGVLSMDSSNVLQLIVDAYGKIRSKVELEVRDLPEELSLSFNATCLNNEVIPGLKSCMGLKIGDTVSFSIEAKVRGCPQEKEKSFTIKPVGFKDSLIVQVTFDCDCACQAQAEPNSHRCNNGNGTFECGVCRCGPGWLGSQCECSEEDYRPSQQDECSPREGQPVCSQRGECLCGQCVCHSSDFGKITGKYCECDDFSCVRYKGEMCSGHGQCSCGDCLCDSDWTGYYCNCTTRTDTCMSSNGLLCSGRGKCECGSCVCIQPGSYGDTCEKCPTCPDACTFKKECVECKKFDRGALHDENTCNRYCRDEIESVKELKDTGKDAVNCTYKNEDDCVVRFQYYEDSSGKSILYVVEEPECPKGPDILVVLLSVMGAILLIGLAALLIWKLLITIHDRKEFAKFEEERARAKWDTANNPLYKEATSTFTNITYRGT

[3] = system: osteoclasts; conditions: Horton et al. 1991
[4] = system: angiogenesis; conditions: Nicosia and Bonanno 1991

CC(C)[C@@H]1NC(=O)[C@@H](Cc2ccccc2)NC(=O)[C@H](CC(=O)O)NC(=O)CNC(=O)[C@H](CCCN=C(N)N)NC1=O [cyclo-RGDfv]
inhibition of angiogenesis / neovascularization [1]: inhibit the neovascularization process

ACPSRLDSPCG (disulfide 2-10 (inferred)) [RLD peptide synthesized from a random cyclic phage library (Koivunen et al.)]
selectivity for the integrin αv β3 [2]: only partially selective | activity relative to an RGD peptide (fold lower) ([2]; binding and cell adhesion assays): 100-1000 fold

GRGDSP [Arg-Gly-Asp containing peptide]
osteoclast function [3]: disruption of osteoclast function

Gly-Arg-Gly-Asp-Ser (GRGDS)
inhibition of angiogenesis in vitro [4]: inhibits angiogenesis in vitro
